Experimental data taken from patent publication US20230174947A1, “METHODS AND COMPOSITIONS FOR IMPROVING ENDOTHELIAL CELL BARRIER” (United Therapeutics Corporation, priority 2021, published 2023).

Test system: HPAECs
Test: HPAEC proliferation, cell counts by Hoechst-stained nuclei (Celigo)
Type: cell-based, Human
Details: Forskolin 40 μM, FTY720-P 50 nM, Methylprednisolone 1 μM; MCDB131
Description: HPAECs were seeded at low initial confluency (3000-5000 cells/cm^2) to study their growth on Collagen type-I coated culture dishes. Barrier agonists were added at 0 hours (FIG. 10A) or at 48 hours (FIG. 10B) and were maintained through the remainder of culture. Barrier agonist compounds, when added to the culture medium (MCDB131), were added at the following concentrations: Forskolin (40 μM), FTY720-P (50 nM), Methylprednisolone (1 μM). Cell counts were measured through individual quantification of nuclei, stained with Hoechst dye and imaged on the Celigo Imaging Cytometer (Nexcelom Bioscience).

## CCCCCCCCc1ccc(CC[C@](N)(CO)COP(=O)(O)O)cc1 [FTY720P, fingolimod-phosphate]
  endothelial cell proliferation (summary statement of Example 6): no reduction in endothelial proliferation
